From patent US20140073607A1, “COMPOUNDS FOR USE IN THE TREATMENT OF FELINE RETROVIRAL INFECTIONS” (OKAPI SCIENCES NV, priority 2011, published 2014)
≈ marks a conversion by molar mass, not a printed value. Each block holds one compound with its values, some of them ahead of it.

What was measured:
FIV [1] = conditions: FIV-infected cats, Hartmann et al. 1998; cited from earlier work
FeLV [2] = experiment: Inhibition of FeLV replication in CrFK cells co-infected with FeLV and FIV (p27 ELISA and RT-qPCR); format: cell-based; conditions: CrFK cells co-infected with FeLV and FIV-Ut113, six days; mean ± SD of three independent assays
Procedure: (§1) The compounds were dissolved in a 0.05 N sodium hydroxide solution at a concentration of 10 mg/ml. Reference compounds PMEDAP and PMEA were dissolved in a sodium bicarbonate buffer at a concentration of 10 mg/ml.
(§2) Crandell Reese Feline kidney (CrFK) cells were grown in Dulbecco minimum essential medium (DMEM, Life Technologies) containing 1% sodium bicarbonate (Life Technologies) and 5% fetal calf serum (FCS, Biochrom). In a 96-well plate 5000 CrFK cells were seeded and incubated for 24 h at 37° C. in a humid atmosphere containing 5% CO2. Subsequently cells were washed with 100 μl phosphate buffered saline (PBS) containing 50 μg/ml DEAE-dextran and co-infected with 100 CCID50 FeLV and 100 CCID50 FIV-Ut113 in presence of increasing doses of the compounds (0.4; 2; 10 and 50 μg/ml). After 2 h of incubation allowing the virus to enter the cells, the supernatant was removed and the cells were washed with PBS. […] The cells were incubated for six days when viral supernatant was collected and analyzed by ELISA for FeLV p27 and FIV p24 antigen production and real time RT-qPCR for FeLV and FIV RNA production. […] Subsequently the amount of FIV p24 was detected by a monoclonal biotinylated antibody 5E6D11 followed by a colorimetric reaction which is based on extravidin peroxidase (Sigma) and OPD substrate (Sigma).

FIV and FeLV = experiment: Treatment of cats naturally co-infected with FIV and FeLV; format: in vivo; conditions: cat co-infected with FIV and FeLV, pre versus post treatment (FIG. 2); no other treatment
Procedure: The compounds were dissolved in an appropriate aqueous buffered sodium hydroxide solution (at concentration ranging between 50 and 250 mg/ml and close to neutral pH conditions (pH between 6 and 9). The formulated compounds were administered via the subcutaneous route at least once weekly at total dose rates ranging between 10 and 175 mg/kg per week. Treatment duration was between 1 week and 3 months.
FIV and FeLV, as retroviruses, reverse transcribe their viral RNA genome into proviral DNA which is subsequently inserted into the genome of its host. […] Reduction of viral load is important in controlling FIV/FeLV infection in the cat. […] The graph in FIG. 2 represents the viral load pre and post treatment with the compounds in a cat co-infected with FIV and FeLV. No other treatment was given concomitantly.

FeLV [3] = experiment: Treatment of cats naturally infected with FeLV; format: in vivo, cat
FIV [4] = experiment: Treatment of clinically ill cats naturally infected with FIV; format: in vivo, cat
Procedure: The compounds were dissolved to a concentration ranging between 50 and 250 mg/mL in an appropriate aqueous buffered sodium hydroxide solution close to neutral pH conditions (pH between 6 and 9).
The formulated compounds were administered via the subcutaneous route at least once weekly at total dose rates ranging between 10 and 175 mg/kg per week. Treatment duration was between 1 week and 3 months.
The results of the treatment of cats with specific symptoms are discussed below. • Cats with oral signs. • Oral signs can present themselves as, but are not limited to, stomatitis, gingivitis, faucitis, glossitis, periodontitis, gingivostomatitis, ulcerations of the tonsils and tongue, salivation etc. […] Spontaneous bleeding was no longer observed and the bloody red inflammation diminished to a slightly pinkish observation. No other treatment was given concomitantly. • Cats with high viral load • FIV, as a retrovirus, reverse transcribes its viral RNA genome into proviral DNA which is subsequently inserted into the genome of its host. […] Reduction of viral load is important in controlling FIV infection in the cat. […] The graphs in FIGS. 1A, B and C represent the viral load pre and post treatment with the compounds in three different cats. No other treatment was given concomitantly. • Lethargic and emaciated cat, with severe weight loss • The FIV-positive cat was presented to the veterinarian with the following clinical signs: lethargy, emaciation, difficulty to walk, unable to jump up/off a chair, no desire to go outdoors, prolonged sleeping patterns. Prognosis was to euthanize the cat. • Treatment with the compounds was initiated and within a matter of weeks, the cat returned to normal, gained weight (0.6 kg), walked and played around, stayed outdoors for several consecutive days. […] No other treatment was given concomitantly. • Cat with lymphadenopathy (swollen/enlarged lymph nodes) • A male FIV-positive cat with swollen Lnn. poplitei (score 4; severity is scored on a scale from 0 to 10 with 0 representing a normal clinical picture and 10 being the most severe manifestation) was treated with the compounds. Within two weeks the swelling went down to a score of 2. At the end of the 6-week treatment period with the compounds a score of 1 was noted; 0 representing a normal clinical picture. […] Before treatment the Lnn. poplitei were swollen (score 2). Two weeks into treatment the lymphnodes returned to normal (score 0) which was maintained throughout the 6-week treatment period with the compounds. • Similar observations were made for two FIV-positive cats. When treatment was initiated the Lnn. mandibulares were swollen (score 2 and 3, respectively). The returned to normal (score 0) by the end of the 6-week treatment with the compounds. • Cat with inflammation of the eye • A female FIV-positive cat suffered from chronic inflammation of the eye before treatment with the compounds was initiated despite concurrent antibacterial treatment. […] No other treatment was given concomitantly. One week following treatment the cat was able to sit up straight and eat on its own. Treatment was continued for another four weeks after which the cat was able to walk, climb up and down stairs, and eat on its own. […] The Karnofsky's score has proven its validity in cats to assess and compare the efficacy of antiviral compounds (Hartmann et al., J Acquir Immune Defic Syndr Hum Retrovirol 1998). Table 4 summarizes the Karnofsky's score of two FIV-positive cats before, during and post treatment with the compounds. No other treatment was given concomitantly.

FIV-Ut113 = experiment: Inhibition of FIV replication in CrFK cells co-infected with FeLV and FIV (p24 ELISA and RT-qPCR); format: cell-based; conditions: CrFK cells co-infected with FeLV and FIV-Ut113, six days; mean ± SD of three independent assays
Procedure: as §1, §2

FeLV [5] = experiment: Inhibition of FeLV replication in CrFK cell culture (p27 ELISA and RT-qPCR); format: cell-based; conditions: CrFK cells, 100 CCID50 FeLV, six days, mean ± SD of three independent assays
Procedure: The compounds were dissolved in a 0.05 N sodium hydroxide solution at a concentration of 10 mg/ml. Crandell Reese Feline kidney (CrFK) cells were grown in Dulbecco minimum essential medium (DMEM, Life Technologies) containing 1% sodium bicarbonate (Life Technologies) and 5% fetal calf serum (FCS, Biochrom). In a 96-well plate 5000 CrFK cells were seeded and incubated for 24 h at 37° C. in a humid atmosphere containing 5% CO2. Subsequently cells were washed with 100 μl phosphate buffered saline (PBS) containing 50 μg/ml DEAE-dextran and inoculated with 100 CCID50 FeLV in presence of increasing doses of the compounds (0.4; 2; 10 and 50 μg/ml). After 2 h of incubation allowing the virus to enter the cells, the supernatant was removed and the cells were washed with PBS. DMEM including 5% FCS and containing increasing doses of the compounds were added to the infected cells. Infected cells without compounds were included as positive controls (virus control) and uninfected cells were included as negative controls (cell control). The cells were incubated for six days when viral supernatant was collected and analyzed by enzyme-linked immunosorbent assay (ELISA) for FeLV p27 antigen production and real time RT-qPCR for FeLV RNA production. […]

[6] = FIV-positive cat A, 50% before treatment
[7] = FIV-positive cat B, 30.5% before treatment

Structure (SMILES): Nc1ncnc2c1ncn2C[C@@H](CF)OCP(=O)(O)O [FPMPA, (S)-9-(3-fluoro-2-phosphonylmethoxypropyl)adenine]
- Effect on FIV load (FIV [1]): reduced the FIV load
- Improvement in Karnofsky's score (FIV [1]): 3.8%

Structure (SMILES): Nc1ncnc2c1ncn2CCOCP(=O)(O)O [PMEA, 9-(2-phosphonylmethoxyethyl)adenine, reference compound]
- Effect on FIV load (FIV [1]): did not decrease the FIV load
- Improvement in Karnofsky's score (FIV [1]): 10%

- EC50 FeLV ELISA (p27) (FeLV [2]): 0.062 ± 0.010 µg/mL (≈ 0.205 µM)
- EC50 FeLV RT-qPCR (FeLV [2]): 0.095 ± 0.050 µg/mL (≈ 0.314 µM)
- EC50 FIV ELISA (p24) (FIV-Ut113): 0.332 ± 0.035 µg/mL (≈ 1.1 µM)
- EC50 FIV RT-qPCR (FIV-Ut113): 0.258 ± 0.024 µg/mL (≈ 0.854 µM)
- EC50 of FeLV replication, RT-qPCR (FeLV [5]; FeLV RNA in supernatant): 0.039 ± 0.024 µg/mL
- EC50 of FeLV replication, p27 ELISA (FeLV [5]; p27 antigen in supernatant): 0.030 ± 0.006 µg/mL
Structure (SMILES): CC(Cn1cnc2c(N)nc(N)nc21)OCP(=O)(O)O (centres unmarked) [R-PMPDAP, 9-(2-phosphonylmethoxypropyl)-2,6-diaminopurine]
- Viral load (FIV/FeLV virions per mL plasma) (FIV and FeLV): significantly reduce the viral load
- FeLV viral load after treatment (FeLV [3]; female FeLV-positive viremic cat, RT-qPCR, decreased from 15500): 3200 FeLV virions per mL plasma
- Karnofsky's score at the end of the 3-week treatment period (FeLV [3]; male FeLV-positive cat with clinical signs, 58.5% before treatment): 80%
- FeLV associated clinical signs following treatment (FeLV [3]; male FeLV-positive cat with oral inflammation, lymphadenopathy, diarrhea): the clinical signs ameliorated
- Karnofsky's score, 1 month post cessation of treatment (FIV [4]; [6]): 90%
- Karnofsky's score, during treatment (FIV [4]; [6]): 70%
- Karnofsky's score, end of treatment (FIV [4]; [6]): 90%
- Karnofsky's score, 1 month post cessation of treatment (FIV [4]; [7]): 35%
- Karnofsky's score, during treatment (FIV [4]; [7]): 50%
- Karnofsky's score, end of treatment (FIV [4]; [7]): 50%
- Stomatitis upon treatment (FIV [4]; FIV-positive cat with severe caudal stomatitis and buccostomatitis, subcutaneous, 10-175 mg/kg per week, no other treatment): the stomatitis decreased significantly
- Gingivitis upon treatment (FIV [4]; FIV-positive cat with severe gingivitis with spontaneous bleeding, subcutaneous, no other treatment): the gingivitis decreased significantly
- Viral load (FIV virions per mL plasma) (FIV [4]; FIV-positive cats, pre versus post treatment, three cats (FIG. 1A, B, C)): significantly reduce the viral load
- Chronic inflammation of the eye following treatment (FIV [4]; female FIV-positive cat, concurrent antibacterial treatment): on its way to full recovery
- Swelling score of Lnn. poplitei (FIV [4]; female FIV-positive cat, score 2 before treatment, scale 0 to 10, two weeks into treatment, maintained throughout 6 weeks): 0
- Weight gained (FIV [4]; lethargic, emaciated FIV-positive cat with severe weight loss, within a matter of weeks): 0.6 kg
- General condition (FIV [4]; lethargic, emaciated FIV-positive cat, prognosis was to euthanize, within a matter of weeks): general condition returned to normal
- Swelling score of Lnn. poplitei (FIV [4]; male FIV-positive cat, score 4 before treatment, scale 0 to 10, end of the 6-week treatment period): 1
- Swelling score of Lnn. poplitei (FIV [4]; male FIV-positive cat, score 4 before treatment, scale 0 to 10, within two weeks): 2
- Neurological symptoms (acute paresis of left front and hind legs) (FIV [4]; male FIV-positive cat, shortly after five weeks of treatment, no other treatment): A full recovery was observed
- Feces (chronic daily diarrhea) (FIV [4]; male FIV-positive cat, within two weeks): returned to normal within two weeks
- Swelling score of Lnn. mandibulares (FIV [4]; two FIV-positive cats, score 2 and 3 at start, scale 0 to 10, end of the 6-week treatment): 0
